Counter-ions that a name gives are not always drawn.
What was measured:
HCV NS3 helicase = molecular target: T1, HCV NS3 helicase (Hepatitis C virus genotype 1a, UniProt P27958); assay: fluorescence helicase assay based on FRET; format: biochemical; settings: dsRNA substrate labeled with Alexa Fluor 700 and Black Hole Quencher 3; 240 nM NS3 helicase; 30 min at 37 °C; triplicate; read-out: IC50 against NS3 helicase
T1 construct: HCV NS3 protein with helicase activity was expressed and purified as previously described; made in house
T1 sequence (P27958 1027-1657): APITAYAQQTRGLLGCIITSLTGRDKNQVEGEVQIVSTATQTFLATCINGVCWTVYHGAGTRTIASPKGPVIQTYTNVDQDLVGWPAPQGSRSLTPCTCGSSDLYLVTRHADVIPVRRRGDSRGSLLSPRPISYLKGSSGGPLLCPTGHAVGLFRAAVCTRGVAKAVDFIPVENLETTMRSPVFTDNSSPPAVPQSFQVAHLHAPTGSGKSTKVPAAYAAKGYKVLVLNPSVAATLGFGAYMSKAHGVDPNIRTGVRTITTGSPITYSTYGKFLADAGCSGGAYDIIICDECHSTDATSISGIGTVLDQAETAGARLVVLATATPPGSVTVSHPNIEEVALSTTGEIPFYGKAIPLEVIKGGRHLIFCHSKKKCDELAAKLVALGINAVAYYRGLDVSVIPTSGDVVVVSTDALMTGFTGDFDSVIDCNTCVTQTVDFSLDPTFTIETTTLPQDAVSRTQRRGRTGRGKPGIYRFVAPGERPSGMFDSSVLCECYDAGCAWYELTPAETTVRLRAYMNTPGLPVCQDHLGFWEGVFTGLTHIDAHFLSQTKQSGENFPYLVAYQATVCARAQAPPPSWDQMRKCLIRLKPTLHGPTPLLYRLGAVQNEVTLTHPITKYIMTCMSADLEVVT
Experimental: For enzymatic inhibition, we used the fluorescence helicase assay based on fluorescence resonance energy transfer (FRET) to examine NS3 helicase inhibition by Compounds 1–4. […] The measured values in triplicate for each concentration of Compounds 1–4 were averaged and divided by the mean value from the negative control sample that contains DMSO instead of Compounds 1–4 to show the NS3 helicase activity as a percentage.
The fluorescence helicase assay based on FRET was conducted as we previously described, except that we used a DNA capture strand rather than an RNA capture strand for which the sequence was complementary to that of the quencher strand. HCV NS3 protein with helicase activity was expressed and purified as previously described. In the assay, when NS3 helicase unwinds the dsRNA substrate, the DNA capture strand binds to the unwound single-stranded RNA (ssRNA) substrate labeled with Black Hole Quencher 3 and prevents the ssRNA substrate from reannealing to the complementary ssRNA substrate labeled with Alexa Fluor 700. […] Thus, the NS3 helicase activity can be monitored by the real-time measurement of the fluorescence intensity of Alexa Fluor 700 through 30 min incubation at 37 °C by using a SpectraMax Gemini XS microplate reader (Molecular Devices, Sunnyvale, CA, USA). The reaction mixture contained 25 mM MOPS-NaOH (pH 6.5), 3 mM MgCl2, 2 mM dithiothreitol, 4 U RNasin (Promega, Madison, WI, USA), 50 nM dsRNA substrate, 400 nM DNA capture strand, 5 mM ATP, a serial dilution of Compounds 1–4 dissolved in DMSO, and 240 nM NS3 helicase in a total reaction volume of 20 μL. The NS3 helicase activity was calculated as the initial reaction velocity relative to that of the control (in the absence of Compounds 1–4 but in the presence of DMSO). The IC50 value was calculated using KaleidaGraph (Synergy Software, Reading, PA, USA) by fitting plots of relative helicase activity (%) vs. [I] using Equation (1):(1) % Activity = 100/1 + ([I]/IC50)^h where h is the Hill coefficient, and [I] is the inhibitor concentration.

Cytotoxicity assay (MTS) = format: cell-based; settings: human, Huh7/Rep-Feo cells, 72 h post-treatment, read-out: CC50 (50% cytotoxicity concentration)
Experimental: (§1) Further, we investigated the effect of Compounds 2 and 3 on both viral replication and cell growth in the HCV subgenomic replicon cell line Huh7/Rep-Feo (genotype 1b, N strain). […] This was likely due to its low membrane permeability caused by the negatively charged sulfate group within the molecule in aqueous solution.
Huh7/Rep-Feo cells were seeded at a density of 1 × 10^4 cells per well in a 96-well plate and then incubated at 37 °C for 24 h. Compounds 2 and 3 were added to the culture medium to yield various concentrations and were then harvested 72 h post-treatment. Cell viability was determined by a dimethyl thiazolcarboxymethoxyphenyl sulfophenyltetrazolium (MTS) assay using a CellTiter 96 aqueous one-solution cell proliferation assay kit (Promega), according to the manufacturer’s protocol.

[1] = system: HCV subgenomic replicon cell line Huh7/Rep-Feo (genotype 1b, N strain); assay: HCV replicon assay (luciferase); format: cell-based; settings: Hepatitis C virus, Huh-7, 72 h post-treatment, luciferase activity, read-out: EC50 (50% effective concentration), suppression of HCV replication
Experimental: as §1
The Huh7/Rep-Feo cell line harboring the subgenomic replicon RNA of the N strain (genotype 1b) was seeded at 2 × 10^4 cells per well in a 48-well plate and incubated at 37 °C for 24 h. A serial dilution of Compounds 2 and 3 was added to each well of the plate. The treated cells were harvested 72 h post-treatment and lysed in cell culture lysis reagent (Promega, Madison, WI, USA). Luciferase activity in the harvested cells was estimated with a luciferase assay system (Promega). The resulting luminescence was detected by a Luminescencer-JNR AB-2100 (ATTO, Tokyo, Japan). The anti-HCV activity was calculated as the intensity of the luminescence relative to that of the control (in the absence of Compounds 2 and 3 but in the presence of DMSO).

[2] = system: hepatitis C virus (HCV) NS3 helicase; settings: authentic molecule; read-out: IC50 against NS3 helicase; cited from earlier work

| Compound | IC50 (HCV NS3 helicase) | CC50 at 72 h (Cytotoxicity assay (MTS)) | EC50 [1] | IC50 [2] |
| --- | --- | --- | --- | --- |
| Cc1cc(O)c2c(=O)c3c(O)cc(OS(=O)(=O)O)cc3cc-2o1 [Compound 1] | 71 µM |  |  |  |
| CCCc1cc(O)c2c(=O)c3c(O)cc(OS(=O)(=O)O)cc3cc-2o1 [Compound 2] | 95 µM | 52 µM | 57 µM |  |
| Cc1cc(O)c2c(=O)c3c(O)c(-c4c(OS(=O)(=O)O)cc(O)c5c(=O)c6c(O)cc(C)oc-6cc45)c(OS(=O)(=O)O)cc3cc-2o1 [Compound 3] | 7 µM | 70 µM | 67 µM |  |
| CCCc1cc(O)c2c(=O)c3c(O)c(-c4c(OS(=O)(=O)O)cc(O)c5c(=O)c6c(O)cc(C)oc-6cc45)c(OS(=O)(=O)O)cc3cc-2o1 [Compound 4] | 5 µM |  |  |  |
| CC(C)CCC[C@@H](C)[C@H]1CC[C@H]2[C@@H]3CC=C4C[C@@H](OS(=O)(=O)O)CC[C@]4(C)[C@H]3CC[C@]12C [cholesterol sulfate] |  |  |  | 1.7 ± 0.2 µM |

— PMC5408263, “Four Aromatic Sulfates with an Inhibitory Effect against HCV NS3 Helicase from the Crinoid Alloeocomatella polycladia” (Marine Drugs, 2017)
